The structures appear in SMILES notation. Read-outs that look alike come from different tables or passages of the source.

Format in all cases: biochemical
One experiment has as its target Thrombin (Homo sapiens, UniProt P00734). Nature of the experiment: Determination of inhibition constants for thrombin. On the procedure: (§1) The inhibitory effect for the individual enzymes was determined in analogy to a previously disclosed method (Stürzebecher et al., 1997).
(§2) For zero order kinetics, the reaction was stopped after 20 min by adding 25 μl of acetic acid (50% v/v), and the absorption at 405 nm was determined using a Microplate Reader (Multiscan Ascent, from Thermo). In the case of pseudo-first order kinetics, the reaction rates in the equilibrium state were ascertained by recording the reaction kinetics. The Ki values were ascertained either in accordance with Dixon (1953) by linear regression using a computer program or by parameter fitting in accordance with the rate equation for competitive inhibition. The Ki values are the average of at least two determinations.

In a further experiment the target is Xa (Homo sapiens, UniProt P00742). Nature of the experiment: Determination of inhibition constants for Xa. On the procedure:
as §1, §2

In the next experiment the target is plasma kallikrein (Homo sapiens, UniProt P03952). Nature of the experiment: Determination of inhibition constants for PK. Also noted: purchased Enzyme Research Lab. / Enzyme Research Laboratories. The protocol: as §1, §2
The target of another experiment is plasmin (Homo sapiens, UniProt P00747). In words: Determination of inhibition constants for plasmin. Also noted: purchased Calbiochem. The protocol: as §1, §2
Setting [1] is: 25° C., substrate S2302, pH 8.0, read-out: PK [Ki].
The mark [2] stands for this setting: 25° C., substrate Chromozym PL, pH 8.0, read-out: Plasmin [Ki].
Where [3] appears, read: summary of results, read-out: Ki value of the plasmin inhibition.

Sequence of plasmin (P00747 581-810 limits assumed): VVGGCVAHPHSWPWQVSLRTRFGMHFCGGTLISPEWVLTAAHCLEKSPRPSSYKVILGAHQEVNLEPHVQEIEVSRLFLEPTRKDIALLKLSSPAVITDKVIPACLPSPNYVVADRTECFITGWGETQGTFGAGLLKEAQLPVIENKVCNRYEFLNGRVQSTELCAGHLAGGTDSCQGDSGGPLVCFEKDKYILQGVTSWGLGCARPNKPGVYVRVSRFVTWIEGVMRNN
Sequence of plasmin (P00747 97-580 partner limits assumed): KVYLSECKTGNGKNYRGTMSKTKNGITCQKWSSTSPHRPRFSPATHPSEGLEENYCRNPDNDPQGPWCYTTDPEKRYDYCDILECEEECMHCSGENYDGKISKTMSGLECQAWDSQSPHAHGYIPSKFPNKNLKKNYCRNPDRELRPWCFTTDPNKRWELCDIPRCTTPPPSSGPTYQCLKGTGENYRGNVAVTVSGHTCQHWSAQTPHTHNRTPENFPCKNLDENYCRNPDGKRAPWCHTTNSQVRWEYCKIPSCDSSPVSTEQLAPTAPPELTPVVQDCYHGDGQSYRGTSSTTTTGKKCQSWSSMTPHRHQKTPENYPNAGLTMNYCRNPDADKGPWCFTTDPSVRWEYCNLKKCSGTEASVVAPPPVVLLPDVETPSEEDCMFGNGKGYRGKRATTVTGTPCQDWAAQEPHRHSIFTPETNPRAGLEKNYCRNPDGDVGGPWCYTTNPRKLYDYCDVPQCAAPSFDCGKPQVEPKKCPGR
Sequence of plasma kallikrein (P03952 391-638 limits assumed): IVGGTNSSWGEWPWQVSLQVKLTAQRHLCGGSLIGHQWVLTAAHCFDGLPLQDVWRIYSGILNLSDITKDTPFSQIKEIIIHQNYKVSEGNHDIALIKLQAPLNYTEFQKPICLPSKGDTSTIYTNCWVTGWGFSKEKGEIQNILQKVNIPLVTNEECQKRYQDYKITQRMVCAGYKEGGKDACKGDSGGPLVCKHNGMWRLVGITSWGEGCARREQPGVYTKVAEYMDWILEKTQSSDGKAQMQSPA
Sequence of plasma kallikrein (P03952 20-390 partner limits assumed): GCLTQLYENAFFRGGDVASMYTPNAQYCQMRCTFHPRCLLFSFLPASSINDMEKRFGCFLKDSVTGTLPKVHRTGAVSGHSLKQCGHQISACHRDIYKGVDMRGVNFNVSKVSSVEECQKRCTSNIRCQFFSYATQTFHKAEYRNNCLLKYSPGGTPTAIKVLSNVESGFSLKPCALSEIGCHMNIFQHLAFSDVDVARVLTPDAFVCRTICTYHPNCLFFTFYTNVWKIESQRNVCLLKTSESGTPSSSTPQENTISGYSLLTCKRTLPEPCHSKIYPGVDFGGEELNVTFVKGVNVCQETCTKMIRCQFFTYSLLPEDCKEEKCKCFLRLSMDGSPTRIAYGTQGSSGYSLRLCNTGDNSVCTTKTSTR
Sequence of Xa (P00742 235-488 limits assumed): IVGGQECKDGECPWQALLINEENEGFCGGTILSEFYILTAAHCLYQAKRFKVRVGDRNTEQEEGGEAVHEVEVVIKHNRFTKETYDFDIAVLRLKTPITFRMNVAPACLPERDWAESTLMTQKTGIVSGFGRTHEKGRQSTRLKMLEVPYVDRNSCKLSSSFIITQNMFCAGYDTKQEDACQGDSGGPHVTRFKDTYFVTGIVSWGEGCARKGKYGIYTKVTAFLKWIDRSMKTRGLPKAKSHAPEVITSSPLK
Sequence of Xa (P00742 41-179 limits assumed): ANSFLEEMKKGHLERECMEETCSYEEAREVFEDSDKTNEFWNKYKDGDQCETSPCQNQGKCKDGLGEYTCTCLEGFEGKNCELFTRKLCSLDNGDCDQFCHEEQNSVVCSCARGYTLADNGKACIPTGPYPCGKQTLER

Turning to `N=C(N)c1ccc(CNC(=O)[C@H](CCCc2ccccc2)NC(=O)[C@@H](CCc2ccncc2)NS(=O)(=O)Cc2ccccc2)cc1` [compound 48], the inhibitory constant (Ki) was below 1000 nM at Thrombin, below 10 nM on Xa, below 10 nM at plasma kallikrein (setting [1]) and below 10 nM at plasmin (setting [2]).
Turning to `N=C(N)c1ccc(CNC(=O)[C@H](Cc2cccc(CN)c2)NC(=O)[C@H](NS(=O)(=O)Cc2ccccc2)C(c2ccccc2)c2ccccc2)cc1` [compound 22], the Ki at Thrombin was below 10 nM; on Xa, below 100 nM; on plasma kallikrein (setting [1]), below 10 nM; at plasmin (setting [2]), below 10 nM.
`N=C(N)c1ccc(CNC(=O)[C@H](Cc2cccc(CN)c2)NC(=O)[C@@H](CN)NS(=O)(=O)Cc2ccccc2)cc1` [compound 61]: the inhibition constant Ki at Thrombin is above 1000 nM; on Xa it was above 1000 nM; at plasma kallikrein (setting [1]), below 10 nM; at plasmin (setting [2]), below 100 nM.
Turning to `N=C(N)c1ccc(CNC(=O)[C@H](Cc2cccc(CN)c2)NC(=O)[C@@H](CCCc2ccccc2Cl)NS(=O)(=O)Cc2ccccc2)cc1` [compound 8], the inhibition constant Ki was below 100 nM at Thrombin, below 100 nM at Xa, below 10 nM at plasma kallikrein (setting [1]) and below 10 nM at plasmin (setting [2]).
Take `N=C(N)c1ccc(CNC(=O)[C@H](CCc2ccccc2)NC(=O)[C@@H](CCCc2ccccc2)NS(=O)(=O)Cc2ccccc2)cc1` [compound 34]: the Ki is below 100 nM at Thrombin, below 1000 nM at Xa, below 10 nM on plasma kallikrein (setting [1]) and below 10 nM on plasmin (setting [2]).
Take `CC(C)(C)OC[C@@H](NS(=O)(=O)Cc1ccccc1)C(=O)N[C@@H](CCc1ccc(C(=N)N)cc1)C(=O)NCc1ccc(C(=N)N)cc1` [compound 77]: the inhibition constant Ki was below 100 nM on Thrombin, below 1000 nM on Xa, below 10 nM on plasma kallikrein (setting [1]) and below 10 nM at plasmin (setting [2]).
Turning to `N=C(N)c1ccc(CNC(=O)[C@H](Cc2cccc(CN)c2)NC(=O)[C@@H](Cc2ccc3ccccc3c2)NS(=O)(=O)Cc2ccc(C(=O)O)cc2)cc1` [compound 19], the Ki is below 1000 nM on Thrombin, below 1000 nM at Xa, below 10 nM on plasma kallikrein (setting [1]) and below 10 nM at plasmin (setting [2]).
For the compound `N=C(N)c1ccc(CNC(=O)[C@H](CCc2ccccc2)NC(=O)[C@@H](CCCc2cccnc2)NS(=O)(=O)Cc2ccccc2)cc1` [compound 51], the inhibition constant (Ki) on Thrombin, on Xa, on plasma kallikrein (setting [1]) and at plasmin (setting [2]) was below 10 nM throughout.
For the compound `CC(C)(C)OC(=O)NCCCC[C@@H](NS(=O)(=O)Cc1ccc(C(=O)O)cc1)C(=O)N[C@@H](Cc1cccc(CN)c1)C(=O)NCc1ccc(C(=N)N)cc1` [compound 58], the Ki at Thrombin is above 1000 nM; at Xa, below 1000 nM; on plasma kallikrein (setting [1]), below 10 nM; on plasmin (setting [2]) it was below 100 nM.
`N=C(N)c1ccc(CNC(=O)[C@H](CCc2ccncc2)NC(=O)[C@H](NS(=O)(=O)Cc2ccccc2)C2Cc3ccccc3C2)cc1` [compound 46]: the inhibition constant (Ki) is below 100 nM on Thrombin; below 1000 nM at Xa; below 10 nM on plasma kallikrein (setting [1]); below 10 nM at plasmin (setting [2]); below 5 nM at plasmin (setting [3]).
Take `N=C(N)c1ccc(CNC(=O)[C@H](Cc2cccc(CN)c2)NC(=O)[C@@H](Cc2cccc3ccccc23)NS(=O)(=O)Cc2ccccc2)cc1` [compound 15]: the inhibition constant (Ki) at Thrombin was below 100 nM; at Xa it was below 100 nM; at plasma kallikrein (setting [1]), below 10 nM; at plasmin (setting [2]) it was below 10 nM.
In the case of `N=C(N)c1ccc(CNC(=O)[C@H](CCc2ccncc2)NC(=O)[C@@H](CCCc2ccccc2)NS(=O)(=O)Cc2cccc(C(=O)O)c2)cc1` [compound 40], the Ki is below 100 nM on Thrombin; below 1000 nM at Xa; below 10 nM at plasma kallikrein (setting [1]); below 1 nM at plasma kallikrein (summary of results, read-out: Ki value of the plasma kallikrein inhibition); below 10 nM at plasmin (setting [2]).
As for `CC(C)(C)OC[C@@H](NS(=O)(=O)Cc1cccc(C(=O)O)c1)C(=O)N[C@@H](Cc1cccc(CN)c1)C(=O)NCc1ccc(C(=N)N)cc1` [compound 67], the Ki is above 1000 nM on Thrombin, below 100 nM on Xa, below 10 nM on plasma kallikrein (setting [1]) and below 10 nM at plasmin (setting [2]).
With `N=C(N)c1ccc(CNC(=O)[C@H](CCc2ccc(CN)cc2)NC(=O)[C@@H](CC2CCCCC2)NS(=O)(=O)Cc2ccccc2)cc1` [compound 37], the inhibitory constant (Ki) at Thrombin, at Xa, at plasma kallikrein (setting [1]) and on plasmin (setting [2]) was below 100 nM throughout.
Turning to `CC(C)(C)OC(=O)NCCCC[C@@H](NS(=O)(=O)Cc1ccccc1)C(=O)N[C@@H](Cc1cccc(CN)c1)C(=O)NCc1ccc(C(=N)N)cc1` [compound 57], the inhibitory constant (Ki) is above 1000 nM at Thrombin, below 100 nM at Xa, below 10 nM at plasma kallikrein (setting [1]) and below 10 nM on plasmin (setting [2]).
Take `N=C(N)c1ccc(CNC(=O)[C@H](CCc2ccccc2)NC(=O)[C@@H](CCCc2ccccc2)NS(=O)(=O)Cc2cccc(C(=O)O)c2)cc1` [compound 36]: the inhibitory constant (Ki) at Thrombin is below 1000 nM; at Xa it was below 100 nM; on plasma kallikrein (setting [1]) it was below 10 nM; at plasmin (setting [2]) it was below 10 nM.
Regarding `CC(C)(C)OC[C@@H](NS(=O)(=O)Cc1ccccc1)C(=O)N[C@@H](Cc1cccc(CN)c1)C(=O)NCc1ccc(C(=N)N)cc1` [compound 63], the Ki on Thrombin was below 1000 nM; on Xa, below 1000 nM; at plasma kallikrein (setting [1]), below 10 nM; at plasmin (setting [2]), below 10 nM.
As for `N#Cc1cccc(C[C@@H](NS(=O)(=O)Cc2ccccc2)C(=O)N[C@@H](CCc2ccncc2)C(=O)NCc2ccc(C(=N)N)cc2)c1` [compound 45], the inhibition constant Ki was below 100 nM on Thrombin, below 1000 nM on Xa, below 10 nM on plasma kallikrein (setting [1]) and below 10 nM at plasmin (setting [2]).
For the compound `N=C(N)c1ccc(CNC(=O)[C@H](CCc2ccc(CN)cc2)NC(=O)[C@@H](CCCc2ccccc2)NS(=O)(=O)Cc2ccccc2)cc1` [compound 31], the Ki is below 100 nM at Thrombin, below 1000 nM on Xa, below 100 nM on plasma kallikrein (setting [1]) and below 10 nM on plasmin (setting [2]).
Consider `N=C(N)c1ccc(CNC(=O)[C@H](Cc2cccc(CN)c2)NC(=O)[C@@H](CC2CCCCC2)NS(=O)(=O)Cc2ccccc2)cc1` [compound 20], for which the Ki is below 1000 nM on Thrombin, below 100 nM on Xa, below 10 nM at plasma kallikrein (setting [1]) and below 10 nM at plasmin (setting [2]).
In the case of `N=C(N)c1ccc(CNC(=O)[C@H](Cc2cccc(CN)c2)NC(=O)[C@@H](CCCc2ccccc2)NS(=O)(=O)Cc2ccc(C(=O)O)cc2)cc1` [compound 2], the Ki is below 1000 nM at Thrombin, below 100 nM at Xa, below 10 nM at plasma kallikrein (setting [1]) and below 10 nM on plasmin (setting [2]).
On to `N=C(N)c1ccc(CNC(=O)[C@H](Cc2ccc(C(=N)N)cc2)NC(=O)[C@@H](CO)NS(=O)(=O)Cc2ccccc2)cc1` [compound 76], for which the inhibition constant (Ki) on Thrombin was above 1000 nM; at Xa, above 1000 nM; on plasma kallikrein (setting [1]), below 100 nM; at plasmin (setting [2]) it was below 100 nM.
With `CC(C)(C)OC[C@@H](NS(=O)(=O)Cc1ccccc1)C(=O)N[C@@H](CCc1cccc(CN)c1)C(=O)NCc1ccc(C(=N)N)cc1` [compound 73], the inhibitory constant (Ki) is below 100 nM at Thrombin, below 1000 nM on Xa, below 100 nM at plasma kallikrein (setting [1]) and below 100 nM on plasmin (setting [2]).
`N=C(N)c1ccc(CNC(=O)[C@H](Cc2c[nH]cn2)NC(=O)[C@@H](CCCc2ccccc2)NS(=O)(=O)Cc2ccccc2)cc1` [compound 32]: the inhibitory constant (Ki) is below 100 nM on Thrombin, below 1000 nM at Xa, below 100 nM at plasma kallikrein (setting [1]) and below 10 nM on plasmin (setting [2]).
As to `N=C(N)c1ccc(CNC(=O)[C@H](CCc2ccccc2)NC(=O)[C@@H](CCCc2ccc[n+]([O-])c2)NS(=O)(=O)Cc2ccccc2)cc1` [compound 55], the inhibitory constant (Ki) was below 100 nM on Thrombin, below 10 nM on Xa, below 10 nM on plasma kallikrein (setting [1]) and below 10 nM at plasmin (setting [2]).
For the compound `N=C(N)c1ccc(CNC(=O)[C@H](CCc2cccc(CN)c2)NC(=O)[C@@H](CO)NS(=O)(=O)Cc2ccccc2)cc1` [compound 74], the Ki at Thrombin is above 1000 nM; on Xa it was above 1000 nM; at plasma kallikrein (setting [1]) it was below 100 nM; at plasmin (setting [2]), below 100 nM.
With `N=C(N)c1ccc(CC[C@H](NC(=O)[C@@H](CC2CCCCC2)NS(=O)(=O)Cc2ccccc2)C(=O)NCc2ccc(C(=N)N)cc2)cc1` [compound 38], the inhibition constant Ki was below 10 nM at Thrombin; below 100 nM at Xa; below 100 nM at plasma kallikrein (setting [1]); below 10 nM at plasmin (setting [2]); below 5 nM at plasmin (setting [3]).
In the case of `N=C(N)c1ccc(CNC(=O)[C@H](Cc2cccc(CN)c2)NC(=O)[C@@H](Cc2ccc3ccccc3c2)NS(=O)(=O)Cc2cccc(C(=O)O)c2)cc1` [compound 18], the Ki on Thrombin is above 1000 nM; on Xa, below 100 nM; on plasma kallikrein (setting [1]), below 10 nM; at plasmin (setting [2]), below 10 nM.
With `N=C(N)c1ccc(CNC(=O)[C@H](CCc2ccncc2)NC(=O)[C@@H](CCc2ccccc2)NS(=O)(=O)Cc2ccccc2)cc1` [compound 44], the inhibition constant (Ki) at Thrombin, on Xa, on plasma kallikrein (setting [1]) and at plasmin (setting [2]) was below 100 nM in each case.
On to `N=C(N)c1ccc(CNC(=O)[C@H](CCc2ccc(CN)cc2)NC(=O)[C@@H](CCc2ccc(O)cc2)NS(=O)(=O)Cc2ccccc2)cc1` [compound 26], for which the Ki was below 1000 nM at Thrombin, below 10 nM on Xa, below 10 nM on plasma kallikrein (setting [1]) and below 10 nM on plasmin (setting [2]).

Values taken from patent publication US8410310B2, “Trypsin-like serine protease inhibitors, and their preparation and use” (The Medicines Company (Leipzig) GmbH, priority 2006, dated 2013).
